Test results taken from patent US20250073255A1, “USE OF FA-TYPE LIPID COMPOUNDS IN PREPARATION OF NUCLEIC ACID DELIVERY REAGENT AND RELATED PRODUCT” (BEIJING BAISHIKANG PHARMACEUTICAL TECHNOLOGY (BSJPHARMA) …, priority 2021, published 2025).

Tested on: C57BL/6 male mice
Test: In vivo delivery study of lipid nucleic acid mixture (oral gavage, RT-qPCR of PGY-sRNA-26 in tissues)
Design: species or system mouse
Conditions: for overall delivery efficacy: delivering nucleic acids into each tissue and blood tested: 100 μg lipid:10 nmol PGY-sRNA-26, all tissues and blood tested; for oral delivery of single-stranded sRNA nucleic acids into mouse blood / oral delivery of single-stranded sRNA nucleic acids into mouse brain tissue / oral delivery of single-stranded sRNA nucleic acids into mouse femur / oral delivery of single-stranded sRNA nucleic acids into mouse heart tissue / oral delivery of single-stranded sRNA nucleic acids into mouse intestinal tissue / oral delivery of single-stranded sRNA nucleic acids into mouse kidney tissue / oral delivery of single-stranded sRNA nucleic acids into mouse liver tissue / oral delivery of single-stranded sRNA nucleic acids into mouse lung tissue / oral delivery of single-stranded sRNA nucleic acids into mouse spleen tissue / oral delivery of single-stranded sRNA nucleic acids into mouse stomach tissue: 100 μg lipid:10 nmol PGY-sRNA-26, sampled after 12 hours; for oral delivery of single-stranded sRNA nucleic acids into mouse heart tissue: vs free uptake group; for oral delivery of single-stranded sRNA nucleic acids into mouse intestinal tissue: intestine
Description: 10 nmol of small RNA (as shown in Table 2) was dissolved in 400 μl of DEPC-treated water in a glass tube, 10 μl of the corresponding lipid stock solution was added such that the lipid mass in the system was 100 μg. The mixture was mixed thoroughly, heated in a 90° C. water bath for 15 minutes, and then cooled naturally to obtain the lipid nucleic acid mixture of lipid and small RNA.
C57BL/6 male mice, approximately 6 weeks old, weighing […], were obtained from Beijing Vital River Laboratory Animal Technology Co., Ltd. The mice were housed in the SPF-grade animal facility at the Animal Center of the Institute of Basic Medical Sciences, Chinese Academy of Medical Sciences. The mice were fasted for 12 hours before gavage administration.
The lipid nucleic acid mixture was prepared following the method described in Example 2. The resultant lipid nucleic acid mixture was orally administered to each mouse at a dose of 100 μg lipid:10 nmol single-stranded 3-methylated small RNA PGY-sRNA-26.
• 1) Blank group (n=4): mice were administered with 500 μl saline by gavage, this group served as a blank control; • 2) Free uptake group (n=4): mice were directly administered with small RNA PGY-sRNA-26 solution (10 nmol/mouse, 500 l) by gavage, this group served as a negative control; • 3) Lipid-treated group (n=4): mice were administered with 500 μl lipid nucleic acid mixture prepared in step 2 by gavage.
After 12 hours of gavage administration, 500 μl blood from the eyeball of each mouse was sampled, added to 1.5 ml Trizol Reagent LS (purchased from Invitrogen), thoroughly mixed for lysis. 3 ml of Trizol Reagent LSwas added to tissue samples and homogenized for complete lysis, wherein the sampled tissues include heart, liver, spleen, lung, kidney, stomach, intestine, brain, blood, femur, pancreas. RNAwas extracted from 1 ml of the blood or the tissue lysate following the steps below: • Centrifuge at 4° C., 12,000 rpm for 5 min, discard the precipitate, transfer Trizol to a new centrifuge tube; • Add chloroform at 200 μL chloroform/mL Trizol, shake well, stand at room temperature for 5 min; • Centrifuge at 4° C., 12,000 rpm for 15 min; • Take the upper aqueous phase to another centrifuge tube, add isopropanol at 0.4 mL isopropanol/mL Trizol, mix well, and stand at low temperature for 10-20 min; • Centrifuge at 4° C., 12,000 rpm for 15 min, discard the supernatant, RNA precipitated at the bottom of the tube; • Add 1 mL of 75% ethanol, gently shake the centrifuge tube, suspend the precipitate; • Centrifuge at 4° C., 12,000 rpm for 15 min, discard the supernatant, add 1 mL of 75% ethanol, gently shake the centrifuge tube, suspend the precipitate; • Centrifuge at 4° C., 12,000 rpm for 15 min, discard the supernatant, air-dry at room temperature, dissolve RNA samples in 50 μL RNase-free H2O, measure OD value to quantify RNA concentration. 3.3 Reverse Transcription of sRNA to cDNA:
sRNA was reverse transcribed to cDNA using the High-Capacity cDNA Reverse Transcription Kit (Applied Biosystems, cat. no. 4368813) by stem-loop method (see, e.g., “Real-time quantification of microRNAs by stem-loop RT-PCR, Nucleic Acids Res. 2005 Nov. 27; 33(20):e179”, incorporated herein by reference). The reverse transcription system is as follows: Template RNA (200 ng/μL) 10 μL, 10×RT Buffer 2.0 μL, 25×dNTP Mix (100 mM) 0.8 μL, U6 RT stem-loop primer (10 μM) 2.0 μL, PGY-sRNA-26 RT stem-loop primer (10 μM) 2.0 μL, MultiScribe™ Reverse Transcriptase (50 U/μL) 1.0 μL, RNAse Inhibitor (40 U/μL) 1.0 μL, nuclease-free H2O 1.2 μL. After transient centrifugation, the reverse transcription system was placed in a PCR machine with the following reaction conditions: (1) 25° C., 10 min; (2) 37° C., 120 min; (3) 85° C., 5 min; (4) 4° C., stop reaction. After the reaction, add 20 μL RNAse-free ddH2O, adjust the final volume to 40 μL. […]

Structure (SMILES) | overall delivery efficacy: delivering nucleic acids into each tissue and blood tested | oral delivery of single-stranded sRNA nucleic acids into mouse blood | oral delivery of single-stranded sRNA nucleic acids into mouse brain tissue | oral delivery of single-stranded sRNA nucleic acids into mouse femur | oral delivery of single-stranded sRNA nucleic acids into mouse heart tissue | oral delivery of single-stranded sRNA nucleic acids into mouse intestinal tissue | oral delivery of single-stranded sRNA nucleic acids into mouse kidney tissue | oral delivery of single-stranded sRNA nucleic acids into mouse liver tissue | oral delivery of single-stranded sRNA nucleic acids into mouse lung tissue | oral delivery of single-stranded sRNA nucleic acids into mouse spleen tissue | oral delivery of single-stranded sRNA nucleic acids into mouse stomach tissue
CCCCCCCC(C)C [Lipid 528, 2-methylnonane] | best delivery efficacy | can effectively orally deliver | can effectively orally deliver | can effectively orally deliver | can effectively orally deliver | can effectively orally deliver | can effectively orally deliver | can effectively orally deliver | can effectively orally deliver | can effectively orally deliver | can effectively orally deliver
O=C(O)CCCCCCCCCCCCCCC(=O)O [Lipid 529, hexadecanedioic acid] | best delivery efficacy | can effectively orally deliver | can effectively orally deliver | can effectively orally deliver | can effectively orally deliver | can effectively orally deliver | can effectively orally deliver | can effectively orally deliver | can effectively orally deliver | can effectively orally deliver | can effectively orally deliver
NC(CCCC(=O)O)C(=O)O (stereo not drawn) [Lipid 530, 2-aminohexanedioic acid] | best delivery efficacy | can effectively orally deliver | can effectively orally deliver | can effectively orally deliver | can effectively orally deliver | can effectively orally deliver | can effectively orally deliver | can effectively orally deliver | can effectively orally deliver | can effectively orally deliver | can effectively orally deliver
COc1cc(CNC(=O)CCCC/C=C/C(C)C)ccc1O [Lipid 537] | best delivery efficacy | can effectively orally deliver | can effectively orally deliver | can effectively orally deliver | can effectively orally deliver | can effectively orally deliver | can effectively orally deliver | can effectively orally deliver | can effectively orally deliver | can effectively orally deliver | can effectively orally deliver
CCCCC/C=C\C/C=C\C/C=C\C/C=C\C/C=C\CCC(=O)O [Lipid 542, (4Z,7Z,10Z,13Z,16Z)-docosa-4,7,10,13,16-pentaenoic acid] | best delivery efficacy | can effectively orally deliver | can effectively orally deliver | can effectively orally deliver | can effectively orally deliver | can effectively orally deliver | can effectively orally deliver | can effectively orally deliver | can effectively orally deliver | can effectively orally deliver | can effectively orally deliver
O=C(O)C[C@H]1CCC(=O)[C@@H]1C/C=C\CCO [Lipid 543] | best delivery efficacy | can effectively orally deliver | can effectively orally deliver | can effectively orally deliver | can effectively orally deliver | can effectively orally deliver | can effectively orally deliver | can effectively orally deliver | can effectively orally deliver | can effectively orally deliver | can effectively orally deliver
O=C(O)CCCCCCCCCCCCCC(=O)O [Lipid 572, pentadecanedioic acid] |  | can effectively orally deliver | can effectively orally deliver | can effectively orally deliver | can effectively orally deliver | can effectively orally deliver | can effectively orally deliver | can effectively orally deliver |  | can effectively orally deliver | can effectively orally deliver
